Data published in patent publication US12466832B2, “Monohydrate and crystalline forms of 6-[(3S,4S)-4-methyl-1-(pyrimidin-2-ylmethyl)pyrrolidin-3-yl]-3-tetrahydropyran-4-yl-7H-imidazo[1,5-a]pyrazin-8-one” (Cardurion Pharmaceuticals, Inc., priority 2018, dated 2025).

How the values were obtained:
Type in all cases: physicochemical
[1] = Solubility assessment of MH1 in solvents (HPLC of liquors, XRPD of isolated solids); conditions: for solubility at 24 h: organic solvent or mixture, thermodynamic from solid
Experimental: Procedure: Four solvents were chosen based on the competitive slurry experiments that favored MH1 as well as for diversity. Combinations of those solvents with water (aw=0.35) were also utilized to verify which hydrate is favored. Mixtures of the solvents with heptane (1:1) were used to check for crystal form with a good antisolvent.
MH1 (22×104 mg) was suspended in various solvents (11×0.5 ml) and stirred at either 5 or 50° C. for 24 hours at 750 rpm. The solids were isolated by filtration and centrifugation and the liquors were analysed by HPLC to determine their solubility (relative to a standard made up). The solids were also investigated by XRPD. This procedure was also followed for an additional five solvent systems comprising different ratios of THF:heptane and IPA:heptane at either 5 or 50° C. The isolated solids were investigated by XRPD, HPLC and ^1HNMR.

[2] = Water activity experiments (slurries, XRPD)
Experimental: MH1 (30.0 mg) was weighed into HPLC vials and placed in a vacuum oven to dry over the weekend. All samples were then placed in a desiccator prior to use to ensure dryness. Solvent ([…]) was added and slurries agitated at either 25° C. or 5° C. Further MH1 was added to any solutions formed to return to a slurry. Ethyl acetate and methyl acetate were both dried prior to use. After four days, the samples were analysed by XRPD with minimum exposure to ambient conditions.
Selected samples were also characterised after standing at ambient for 2 days by XRPD, 1H NMR, TGA and DSC.

[3] = Variable temperature XRPD (VT XRPD)
Experimental: For variable temperature (VT) experiments the samples were prepared and analysed in an Anton Paar chromed sample holder. A heating/cooling rate of 10° C./min was used with a 2 min isothermal hold before the measurement started. The measurement parameters are as per the standard screening data collection method (detailed above). Measurements were taken at the following temperatures: 25, 50, 75, 100, 160, and 25° C. The sample was then reanalyzed by XRPD after 1 h to check for complete rehydration.
MH1 was analysed at 25, 50, 75, 100, 160 and 25° C. (10° C./min heating rate and a 2 min wait before the measurement started) on the Empyrean. The sample was then reanalysed by XRPD after 10 and 20 min to check for rehydration.
(§1) Procedure: A second batch of MH2 material was prepared using the same procedure. This sample was then analysed by VTXRPD and by XRPD under vacuum.

XRPD under vacuum = assay: XRPD under vacuum
Experimental: For vacuum experiments the samples were prepared and analysed in an Anton Paar chromed sample holder. The measurement parameters are as per the standard screening data collection method (detailed above), at 25° C. with no vacuum (I2). A vacuum of around 50 mbar was then applied and the sample measured every 5 min until the anhydrate pattern was obtained for three consecutive measurements (to ensure complete dehydration, up to sample I8). The vacuum was then released and the sample analysed every 5 min for 6 measurements (until sample I22). The sample was then reanalyzed by XRPD after 1 h to check for complete rehydration.
MH1 was analysed at 25° C. with no vacuum. A vacuum of around 50 mbar was then applied and the sample measured every 5 min until the anhydrate pattern was obtained for three consecutive measurements (to ensure complete dehydration). The vacuum was then released and the sample analysed every 5 min for 6 measurements before the front of the sample stage was removed.
as §1

[4] = Ethanol:Heptane 1:1, 5° C., 24 hours
[5] = IPrOAc:0.5% water, 50° C., 24 hours
[6] = IPrOAc:Heptane 1:1, 5° C., 24 hours
[7] = IPrOAc:Heptane 1:1, 50° C., 24 hours
[8] = THF:0.8% water, 5° C., 24 hours
[9] = THF:Heptane 1:1, 5° C., 24 hours
[10] = THF:Heptane 1:1, 50° C., 24 hours
[11] = 0.5% water/EtOAc, Aw = 0.3, four days
[12] = 0.8% water/MeOAc, Aw = 0.4, four days
[13] = 1% water/EtOAc, Aw = 0.5, four days
[14] = 1.5% water/EtOAc, Aw = 0.6, four days
[15] = 2% water/EtOAc, Aw = 0.7, four days
[16] = 2.7% water/EtOAc, Aw = 0.8, four days
[17] = 7.5% water/MeOAc, Aw = 0.9, four days
[18] = EtOAc, Sieves, slurry four days

Solubility ([1]; Ethanol, 5° C., 24 hours): >200 mg/mL
Solubility ([1]; Ethanol, 50° C., 24 hours): >200 mg/mL
Solubility ([1]; Ethanol:4.2% water, 5° C., 24 hours): >200 mg/mL
XRPD (isolated solid) [1, 4]: MH1 + AH
XRPD (isolated solid) ([1]; Heptane, 5° C., 24 hours): MH1
XRPD (isolated solid) ([1]; Heptane, 50° C., 24 hours): MH1 + AH
XRPD (isolated solid) ([1]; IPA, 5° C., 24 hours): MH1 + AH
Solubility ([1]; IPA, 50° C., 24 hours): >200 mg/mL
XRPD (isolated solid) ([1]; IPA:Heptane 1:1, 5° C.): MH1
XRPD (isolated solid) ([1]; IPA:Heptane 1:2, 5° C.): MH1
XRPD (isolated solid) ([1]; IPA:Heptane 1:2, 50° C.): MH1
XRPD (isolated solid) ([1]; IPA:Heptane 1:3, 5° C.): MH1
XRPD (isolated solid) ([1]; IPA:Heptane 1:3, 50° C.): MH1
solubility at 24 h ([1]; IPrOAc with 0.5% water, IPrOAc:0.5% water, 5° C., 24 hours): 3.8 mg/mL
XRPD (isolated solid) ([1]; IPrOAc, 5° C., 24 hours): MH1
XRPD (isolated solid) ([1]; IPrOAc, 50° C., 24 hours): MH1 + AH
XRPD (isolated solid) ([1]; IPrOAc:0.5% water, 5° C., 24 hours): MH2
XRPD (isolated solid) [1, 5]: MH1
XRPD (isolated solid) [1, 6]: MH1
XRPD (isolated solid) [1, 7]: MH1
XRPD (isolated solid) ([1]; THF, 5° C., 24 hours): MH2 + New peaks
Solubility ([1]; THF, 50° C., 24 hours): >200 mg/mL
XRPD (isolated solid) [1, 8]: MH2
XRPD (isolated solid) [1, 9]: MH1
XRPD (isolated solid) [1, 10]: MH1
XRPD (isolated solid) ([1]; THF:Heptane 1:2, 5° C.): MH1
XRPD (isolated solid) ([1]; THF:Heptane 1:2, 50° C.): MH1
XRPD (isolated solid) ([1]; THF:Heptane 2:1, 5° C.): MH2
XRPD (isolated solid) ([1]; THF:Heptane 2:1, 50° C.): MH1
solubility at 24 h ([1]; ethanol with 4.2% water, Ethanol:4.2% water, 5° C., 24 hours): > 200 mg/mL
solubility at 24 h ([1]; Ethanol, 5° C., 24 hours): > 200 mg/mL
solubility at 24 h ([1]; Ethanol, 50° C., 24 hours): > 200 mg/mL
solubility at 24 h ([1]; Ethanol:4.2% water, 50° C., 24 hours): > 200 mg/mL
solubility at 24 h [1, 4]: 170 mg/mL
solubility at 24 h ([1]; Ethanol:Heptane 1:1, 50° C., 24 hours): > 200 mg/mL
solubility at 24 h ([1]; IPA, 5° C., 24 hours): 130 mg/mL
solubility at 24 h ([1]; IPA, 50° C., 24 hours): > 200 mg/mL
solubility at 24 h ([1]; IPA:Heptane 1:1, 5° C.): 40 mg/mL
solubility at 24 h ([1]; IPA:Heptane 1:1, 50° C.): > 200 mg/mL
solubility at 24 h ([1]; IPA:Heptane 1:2, 5° C.): 14 mg/mL
solubility at 24 h ([1]; IPA:Heptane 1:2, 50° C.): 19 mg/mL
solubility at 24 h ([1]; IPA:Heptane 1:3, 5° C.): 8 mg/mL
solubility at 24 h ([1]; IPA:Heptane 1:3, 50° C.): 10 mg/mL
solubility at 24 h ([1]; IPrOAc, 5° C., 24 hours): 11 mg/mL
solubility at 24 h ([1]; IPrOAc, 50° C., 24 hours): 6.3 mg/mL
solubility at 24 h [1, 5]: 5.6 mg/mL
solubility at 24 h [1, 6]: 1.9 mg/mL
solubility at 24 h [1, 7]: 2.1 mg/mL
solubility at 24 h ([1]; THF, 5° C., 24 hours): 79 mg/mL
solubility at 24 h ([1]; THF, 50° C., 24 hours): > 200 mg/mL
solubility at 24 h [1, 8]: 76 mg/mL
solubility at 24 h ([1]; THF:0.8% water, 50° C., 24 hours): > 200 mg/mL
solubility at 24 h [1, 9]: 6.3 mg/mL
solubility at 24 h [1, 10]: 11 mg/mL
solubility at 24 h ([1]; THF:Heptane 1:2, 5° C.): 0.33 mg/mL
solubility at 24 h ([1]; THF:Heptane 1:2, 50° C.): 0.62 mg/mL
solubility at 24 h ([1]; THF:Heptane 2:1, 5° C.): 17 mg/mL
solubility at 24 h ([1]; THF:Heptane 2:1, 50° C.): 21 mg/mL
Results for 5° C. (form by XRPD) [2, 11]: MH1
Results for 25° C. (form by XRPD) [2, 11]: MH1
Results for 5° C. (form by XRPD) [2, 12]: MH1
Results for 25° C. (form by XRPD) [2, 12]: MH1
Results for 5° C. (form by XRPD) [2, 13]: New Form
Results for 25° C. (form by XRPD) [2, 13]: MH1
Results for 5° C. (form by XRPD) [2, 14]: New Form
Results for 25° C. (form by XRPD) [2, 14]: MH1
Results for 5° C. (form by XRPD) [2, 15]: New Form
Results for 25° C. (form by XRPD) [2, 15]: New Form
Results for 5° C. (form by XRPD) [2, 16]: New Form
Results for 25° C. (form by XRPD) [2, 16]: New Form
Results for 5° C. (form by XRPD) [2, 17]: New Form
Results for 25° C. (form by XRPD) [2, 17]: New Form
Results for 5° C. (form by XRPD) [2, 18]: MH1
Results for 25° C. (form by XRPD) [2, 18]: MH1
TGA post VT XRPD mass loss [3]: 3.2%
Form by VT XRPD upon heating ([3]; 75° C.): fully anhydrous
Form by VT XRPD after cooling back ([3]; re-cooled to 25° C.): peaks corresponding to MH1 are present
TGA post vacuum XRPD mass loss (XRPD under vacuum): 3.4%
Time to fully hydrated by XRPD after ambient air admitted (XRPD under vacuum; after vacuum released and front of sample stage taken off): 15 min
Time under vacuum to conversion to the anhydrate by XRPD (XRPD under vacuum; vacuum of around 50 mbar, 25° C.): 10 min
SMILES: C[C@@H]1CN(Cc2ncccn2)C[C@H]1c1cn2c(C3CCOCC3)ncc2c(=O)[nH]1 [MH1, 6-[(3S,4S)-4-methyl-1-(pyrimidin-2-ylmethyl)pyrrolidin-3-yl]-3-tetrahydropyran-4-yl-7H-imidazo[1,5-a]pyrazin-8-one]
